The values that follow come from ChEMBL document CHEMBL1125669, “Synthesis of potential dual-acting radiation sensitizer antineoplastic agents: 2,2-dimethylphosphoraziridines containing 2-nitroimidazoles or other electron-affinic moieties” (1991).

Common to all, as to format: functional
The test system of experiment [1] is Mus musculus. Description: In vivo antitumor activity against P-388 leukemia in CDF1 mice at 256 mg or 663 umol by ip administration expressed as median survival time of drug treated mice/median survival time of control mice x100.
Experiment [2] deals with Mus musculus. The experiment is described as follows: In vivo antitumor activity against P-388 leukemia in CDF1 mice at 16 mg or 41 umol by ip administration expressed as average wt. change determined between day 0 and day 6 of experiment.
The test system of experiment [3] is Mus musculus. Description: In vivo antitumor activity against P-388 leukemia in CDF1 mice at 16 mg or 41 umol by ip administration expressed as median survival time of drug treated mice/median survival time of control mice x100.
Experiment [4] deals with Mus musculus. The experiment is described as follows: effect of drug treatment in combination with gamma radiation on P-388 leukemia in mice at 250 mg/kg and 200R expressed as average weight change.
The test system of experiment [5] is Mus musculus. Description: In vivo antitumor activity against P-388 leukemia in CDF1 mice at 128 mg or 331 umol by ip administration expressed as average wt. change determined between day 0 and day 6 of experiment.
In experiment [6] the test system is Mus musculus. Description: In vivo antitumor activity against P-388 leukemia in CDF1 mice at 8 mg or 21 umol by ip administration expressed as median survival time of drug treated mice/median survival time of control mice x100.
Experiment [7] relates to Mus musculus. Description: effect of drug treatment in combination with gamma radiation on P-388 leukemia in mice at 250 mg/kg and 600R expressed as median survival time of drug treated mice/median survival time of control mice x100.
Experiment [8] deals with Mus musculus. Description: In vivo antitumor activity against P-388 leukemia in CDF1 mice at 128 mg or 331 umol by ip administration expressed as median survival time of drug treated mice/median survival time of control mice x100.
The test system of experiment [9] is Mus musculus. Description: effect of drug treatment in combination with gamma radiation on P-388 leukemia in mice at 250 mg/kg and 400R expressed as median survival time of drug treated mice/median survival time of control mice x100.
Experiment [10] relates to Mus musculus. Description: In vivo antitumor activity against P-388 leukemia in CDF1 mice at 256 mg or 663 umol by ip administration expressed as average wt. change determined between day 0 and day 6 of experiment.
In experiment [11] the test system is Mus musculus. Description: effect of drug treatment in combination with gamma radiation on P-388 leukemia in mice at 250 mg/kg and 200R expressed as median survival time of drug treated mice/median survival time of control mice x100.
The subject of experiment [12] is Mus musculus. Description: In vivo antitumor activity against P-388 leukemia in CDF1 mice at 32 mg or 83 umol by ip administration expressed as median survival time of drug treated mice/median survival time of control mice x100.
Experiment [13] relates to Mus musculus. Description: effect of drug treatment in combination with gamma radiation on P-388 leukemia in mice at 250 mg/kg and 400R expressed as average weight change.
For experiment [14], the system named is Mus musculus. Description: In vivo antitumor activity against P-388 leukemia in CDF1 mice at 64 mg or 166 umol by ip administration expressed as median survival time of drug treated mice/median survival time of control mice x100.
In experiment [15] the test system is Mus musculus. The experiment is described as follows: In vivo antitumor activity against P-388 leukemia in CDF1 mice at 8 mg or 21 umol by ip administration expressed as average wt. change determined between day 0 and day 6 of experiment.
For experiment [16], the system named is Mus musculus. The experiment is described as follows: In vivo antitumor activity against P-388 leukemia in CDF1 mice at 32 mg or 83 umol by ip administration expressed as average wt. change determined between day 0 and day 6 of experiment.
Experiment [17] relates to Mus musculus. Description: In vivo antitumor activity against P-388 leukemia in CDF1 mice at 64 mg or 166 umol by ip administration expressed as average wt. change determined between day 0 and day 6 of experiment.
In experiment [18] the test system is Mus musculus. Description: effect of drug treatment in combination with gamma radiation on P-388 leukemia in mice at 250 mg/kg and 600R expressed as average weight change.
The subject of experiment [19] is Mus musculus. The experiment is described as follows: In vivo antitumor activity against P-388 leukemia in CDF1 mice at 8 mg or 23 umol by ip administration expressed as average wt. change determined between day 0 and day 6 of experiment.
In experiment [20] the test system is Mus musculus. The experiment is described as follows: In vivo antitumor activity against P-388 leukemia in CDF1 mice at 128 mg or 373 umol by ip administration expressed as median survival time of drug treated mice/median survival time of control mice x100.
Experiment [21] has as its system Mus musculus. Description: In vivo antitumor activity against P-388 leukemia in CDF1 mice at 64 mg or 186 umol by ip administration expressed as median survival time of drug treated mice/median survival time of control mice x100.
The test system of experiment [22] is Mus musculus. Description: In vivo antitumor activity against P-388 leukemia in CDF1 mice at 16 mg or 47 umol by ip administration expressed as average wt. change determined between day 0 and day 6 of experiment.
In experiment [23] the test system is Mus musculus. The experiment is described as follows: In vivo antitumor activity against P-388 leukemia in CDF1 mice at 32 mg or 93 umol by ip administration expressed as average wt. change determined between day 0 and day 6 of experiment.
In experiment [24] the test system is Mus musculus. The experiment is described as follows: In vivo antitumor activity against P-388 leukemia in CDF1 mice at 256 mg or 746 umol by ip administration expressed as median survival time of drug treated mice/median survival time of control mice x100.
Experiment [25] deals with Mus musculus. Description: In vivo antitumor activity against P-388 leukemia in CDF1 mice at 16 mg or 47 umol by ip administration expressed as median survival time of drug treated mice/median survival time of control mice x100.
In experiment [26] the test system is Mus musculus. Description: In vivo antitumor activity against P-388 leukemia in CDF1 mice at 128 mg or 373 umol by ip administration expressed as average wt. change determined between day 0 and day 6 of experiment.
The test system of experiment [27] is Mus musculus. The experiment is described as follows: In vivo antitumor activity against P-388 leukemia in CDF1 mice at 32 mg or 93 umol by ip administration expressed as median survival time of drug treated mice/median survival time of control mice x100.
Experiment [28] deals with Mus musculus. Description: In vivo antitumor activity against P-388 leukemia in CDF1 mice at 8 mg or 23 umol by ip administration expressed as median survival time of drug treated mice/median survival time of control mice x100.
Experiment [29] has as its system Mus musculus. The experiment is described as follows: In vivo antitumor activity against P-388 leukemia in CDF1 mice at 256 mg or 746 umol by ip administration expressed as average wt. change determined between day 0 and day 6 of experiment.
In experiment [30] the test system is Mus musculus. The experiment is described as follows: In vivo antitumor activity against P-388 leukemia in CDF1 mice at 64 mg or 186 umol by ip administration expressed as average wt. change determined between day 0 and day 6 of experiment.

On to `CC1(C)CN1P(=O)(NC(=O)OCCn1ccnc1[N+](=O)[O-])N1CC1(C)C` (stereo not given), for which the T/C (usually the result in the treated group divided by that in the control group, in per cent) turned out to be 169% with Mus musculus [1]; 125% in the experiment on Mus musculus [3]; 113% with Mus musculus [6]; 230% with Mus musculus [7]; 156% with Mus musculus [8]; 200% in the experiment with Mus musculus [9]. Further, the T/C was 190% in the experiment with Mus musculus [11], 125% in the experiment with Mus musculus [12] and 144% in the experiment on Mus musculus [14]. Further, the Average weight change in the experiment with Mus musculus [2] is 0.6 g; in the experiment with Mus musculus [4] it was 1.92 g; in the experiment with Mus musculus [5], -1.1 g; with Mus musculus [10], -1 g; with Mus musculus [13], 1.17 g; with Mus musculus [15], 1.6 g. The Average weight change in the experiment on Mus musculus [16] is reported as 0.8 g; in the experiment on Mus musculus [17], -0.5 g; in the experiment with Mus musculus [18], 0.67 g.

With `CC1(C)CN1P(=O)(OCCn1ccnc1[N+](=O)[O-])N1CC1(C)C` (stereo not given), the Average weight change in the experiment with Mus musculus [19] is listed as 0.2 g; with Mus musculus [22], 0.1 g; in the experiment on Mus musculus [23] it was -0.9 g; in the experiment with Mus musculus [26], -1.3 g; in the experiment with Mus musculus [29], -2.8 g; in the experiment on Mus musculus [30] it was -1.1 g. In addition, the T/C came to 189% in the experiment on Mus musculus [20]; 150% in the experiment on Mus musculus [21]; 228% in the experiment on Mus musculus [24]; 122% with Mus musculus [25]; 111% in the experiment with Mus musculus [27]; 106% with Mus musculus [28].
